One series deals with plants. The experiment in a line: Herbicidal potency of clethodim enantiomer versus racemate. In kind it is in vivo. Conditions: used in a herbicidal composition; no test data given.
Series [1] is described as follows: Solubility / miscibility in water. In kind it is physicochemical.
Series [2] in a line: Storage stability of CPHA free base and CPHA-HCl solutions (decomposition / GC purity drop). In kind it is physicochemical. As for the experimental part:
Neither preparation nor applications of solvent-free CPHA free base or aqueous CPHA solution has been reported in the prior art. […] For example, a commercial 40% CPHA-HCl solution decomposes by 52% after 23 days at 35° C., whereas, a 85% CPHA aqueous solution has only 1.1% purity drop after 78 days at 40° C.
The GC method set up for CPHA purity, impurity profile, and hydroxylamine content determination is described as follows. • Instrument: HP 6890 series GC system. • Column: HP-1 capillary column, 10 m×0.53 mm×[…]. • Detector: FID, 250° C. • Inlet: 200° C. • Oven Temperature program: • Initial temperature: 40° C. • Initial time: 2 minutes. • Ramps: 10° C./min, 65° C., 0 minutes • 20° C./min, 250° C., 3 minutes.
Weigh about 2.00 g of sample in a vial containing 2.20 g of cyclohexanone; Add 50% sodium hydroxide if necessary to bring pH to above 9. Stir the mixture in the capped vial at 50° C. for 2 hours. After cooling, add 8.0 g of dichloromethane and shake for one minute. Settle the mixture for 5 minutes. Take the organic phase for gas chromatographic (GC) analysis. CPHA purity and impurity profile are directly based on GC area. Hydroxylamine content is calculated based on the integration area of cyclohexanone oxime (cyclohexanoxime) peak and O-(chloro-2-propenyl)cyclohexanoxime peak.

The nature of series [3]: Solubility in organic solvents. In kind it is physicochemical. Conditions: ethers, alcohol, toluene, chlorinated alkanes. The text has this:
For example, to make a O-(3-chloro-2-propenyl)hydroxylamine solution in dichloromethane, CPHA is simply mixed with dichloromethane. No exotherm was observed.

Consider `CCSC(C)CC1CC(=O)C(/C(CC)=N/OC/C=C/Cl)=C(O)C1` (single isomer, unassigned; (-)) [(−) clethodim], for which, in the series with plants, the “potency compared to the racemic form or (+) clethodim” value is reported as “increased potency”.
For the molecule `NOCC=CCl` [CPHA, O-(3-Chloro-2-propenyl)hydroxylamine], the miscibility with water result in series [1] (room temperature) is “miscible with water”. The same molecule yielded a purity drop in series [2] (85% CPHA aqueous solution, after 78 days at 40° C.) of 1.1%. Further, in series [3], the “solubility in organic solvents” value is “soluble in many organic solvents”.
As for `Cl.NOCC=CCl` [CPHA-HCl, O-(3-chloro-2-propenyl)hydroxylamine hydrochloride, reference compound], the maximum solubility result in series [1] (commercially available CPHA-HCl solution in water) was “about 45%”. In addition, the decomposition of solution in series [2] (commercial 40% CPHA-HCl solution, after 23 days at 35° C.) is reported as 52%.

(Values after patent publication US20050085645A1, “O-(3-chloropropenyl) hydroxylamine free base” (priority 2003, published 2005).)
